Assay results: patent publication US10597388B2, “Pyridazinone herbicides” (FMC CORPORATION, priority 2014, dated 2020)

Legend:
Format in all cases: in vivo
[1] = system: crabgrass, large (large crabgrass, Digitaria sanguinalis); experiment: Test C greenhouse herbicide test, pre- and postemergence
How it was run: (§1)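 Preemergence: seeds sown in a loam soil–sand blend and sprayed with test chemicals in a non-phytotoxic solvent mixture containing surfactant. Postemergence: plants grown in peat-based medium and treated at 2 to 18 cm (1- to 4-leaf stage). After 13 to 15 d in a greenhouse, injury was visually rated 0–100 against controls.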

[2] = system: morningglory (Ipomoea coccinea); experiment: as above
How it was run: as §1

[3] = system: pigweed (Amaranthus retroflexus); experiment: as above
How it was run: as §1

[4] = system: foxtail, giant (giant foxtail, Setaria faberii); experiment: as above
How it was run: as §1

corn (Zea mays) = experiment: as above
How it was run: as §1

[5] = system: wheat (winter wheat, Triticum aestivum); experiment: as above
How it was run: as §1

[6] = system: oilseed rape (Brassica napus); experiment: as above
How it was run: as §1

[7] = system: waterhemp (common waterhemp, Amaranthus rudis); experiment: as above
How it was run: as §1

[8] = system: lambsquarters (Chenopodium album); experiment: as above
How it was run: as §1

[9] = system: ragweed (common ragweed, Ambrosia elatior); experiment: as above
How it was run: as §1

[10] = system: blackgrass (Alopecurus myosuroides); experiment: as above
How it was run: as §1

[11] = system: ryegrass, Italian (Italian ryegrass, Lolium multiflorum); experiment: as above
How it was run: as §1

[12] = system: nutsedge, yellow (yellow nutsedge, Cyperus esculentus); experiment: as above
How it was run: as §1

[13] = system: johnsongrass (Sorghum halepense); experiment: as above
How it was run: as §1

soybean (Glycine max) = experiment: as above
How it was run: as §1

kochia (Kochia scoparia) = experiment: Test C greenhouse herbicide test, postemergence
How it was run: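 Visual injury scores (0–100, where 100 means complete control) were assigned 13 to 15 d after postemergence application, by comparison with untreated plants. Treated seedlings stood 2 to 18 cm tall, at the 1- to 4-leaf stage.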

[14] = Postemergence, 16 g ai/ha, scale 0 to 100 (0 no effect, 100 complete control)
[15] = Postemergence, 31 g ai/ha, scale 0 to 100 (0 no effect, 100 complete control)
[16] = Postemergence, 62 g ai/ha, 0 to 100 scale (0 no effect, 100 complete control)
[17] = postemergence, 125 g ai/ha, scale 0 to 100, 0 no effect, 100 complete control
[18] = Postemergence, 125 g ai/ha, scale 0 to 100, 0 is no effect, 100 is complete control
[19] = Postemergence, 250 g ai/ha, scale 0 to 100, 0 no effect, 100 complete control, 13 to 15 d
[20] = postemergence, 62 g ai/ha, scale 0 to 100, 0 no effect, 100 complete control
[21] = Postemergence, 31 g ai/ha, 0 to 100 scale (0 no effect, 100 complete control)

## COC(=O)Oc1cnn(C)c(=O)c1-c1c(C)ccc2ccccc12 [Compound 143]
[1]; [14]
  Plant response rating, Crabgrass, Large: 5
[1]; [15]
  Plant response rating, Crabgrass, Large: 10
[1]; [16]
  Crabgrass, Large plant response rating: 10
[1]; [17]
  Crabgrass, Large plant response rating: 30
[2]; [14]
  Plant response rating, Morningglory: 30
[2]; [15]
  Plant response rating, Morningglory: 50
[2]; [16]
  Morningglory plant response rating: 65
[2]; [17]
  Morningglory plant response rating: 70
[3]; [14]
  Plant response rating, Pigweed: 50
[3]; [15]
  Plant response rating, Pigweed: 50
[3]; [16]
  Pigweed plant response rating: 65
[3]; [17]
  Pigweed plant response rating: 75
[4]; [14]
  Plant response rating, Foxtail, Giant: 5
[4]; [15]
  Plant response rating, Foxtail, Giant: 5
[4]; [16]
  Foxtail, Giant plant response rating: 5
[4]; [17]
  Foxtail, Giant plant response rating: 20
Corn (Zea mays); [14]
  Plant response rating, Corn: 0
Corn (Zea mays); [15]
  Plant response rating, Corn: 5
Corn (Zea mays); [16]
  Corn plant response rating: 0
Corn (Zea mays); [17]
  Corn plant response rating: 5
[5]; [14]
  Plant response rating, Wheat: 0
[5]; [15]
  Plant response rating, Wheat: 5
[5]; [16]
  Wheat plant response rating: 35
[5]; [17]
  Wheat plant response rating: 15
[6]; [14]
  Plant response rating, Oilseed Rape: 60
[6]; [15]
  Plant response rating, Oilseed Rape: 0
[6]; [16]
  Oilseed Rape plant response rating: 0
[6]; [17]
  Oilseed Rape plant response rating: 5
[7]; [14]
  Plant response rating, Waterhemp: 25
[7]; [15]
  Plant response rating, Waterhemp: 40
[7]; [16]
  Waterhemp plant response rating: 55
[7]; [17]
  Waterhemp plant response rating: 90
[8]; [14]
  Plant response rating, Lambsquarters: 10
[8]; [15]
  Plant response rating, Lambsquarters: 50
[8]; [16]
  Lambsquarters plant response rating: 60
[8]; [17]
  Lambsquarters plant response rating: 75
[9]; [14]
  Plant response rating, Ragweed: 0
[9]; [15]
  Plant response rating, Ragweed: 0
[9]; [16]
  Ragweed plant response rating: 30
[9]; [17]
  Ragweed plant response rating: 70
[10]; [14]
  Plant response rating, Blackgrass: 0
[10]; [15]
  Plant response rating, Blackgrass: 5
[10]; [16]
  Blackgrass plant response rating: 5
[10]; [17]
  Blackgrass plant response rating: 20
[11]; [14]
  Plant response rating, Ryegrass, Italian: 45
[11]; [15]
  Plant response rating, Ryegrass, Italian: 55
[11]; [16]
  Ryegrass, Italian plant response rating: 60
[11]; [17]
  Ryegrass, Italian plant response rating: 90
[12]; [14]
  Plant response rating, Nutsedge, Yellow: 10
[12]; [15]
  Plant response rating, Nutsedge, Yellow: 10
[12]; [16]
  Nutsedge, Yellow plant response rating: 40
[12]; [17]
  Nutsedge, Yellow plant response rating: 35
[13]; [14]
  Plant response rating, Johnsongrass: 10
[13]; [15]
  Plant response rating, Johnsongrass: 10
[13]; [16]
  Johnsongrass plant response rating: 25
[13]; [17]
  Johnsongrass plant response rating: 20
Soybean (Glycine max); [14]
  Plant response rating, Soybean: 0
Soybean (Glycine max); [15]
  Plant response rating, Soybean: 0
Soybean (Glycine max); [16]
  Soybean plant response rating: 15
Soybean (Glycine max); [17]
  Soybean plant response rating: 20
Kochia (Kochia scoparia); [14]
  Plant response rating, Kochia: 0
Kochia (Kochia scoparia); [15]
  Plant response rating, Kochia: 30
Kochia (Kochia scoparia); [16]
  Kochia plant response rating: 60
Kochia (Kochia scoparia); [17]
  Kochia plant response rating: 60

## CC(=O)Oc1c(C#N)nn(C)c(=O)c1-c1c(C)ccc2ccccc12 [Compound 98]
[1]; [18]
  Plant response rating, Crabgrass, Large: 45
[1]; [19]
  Plant response rating, Crabgrass, Large: 70
[1]; [20]
  Crabgrass, Large plant response rating: 25
[2]; [18]
  Plant response rating, Morningglory: 100
[2]; [19]
  Plant response rating, Morningglory: 100
[2]; [20]
  Morningglory plant response rating: 100
[3]; [18]
  Plant response rating, Pigweed: 100
[3]; [19]
  Plant response rating, Pigweed: 100
[3]; [20]
  Pigweed plant response rating: 100
[4]; [18]
  Plant response rating, Foxtail, Giant: 98
[4]; [19]
  Plant response rating, Foxtail, Giant: 100
[4]; [20]
  Foxtail, Giant plant response rating: 95
Corn (Zea mays); [21]
  Corn plant response rating: 5
Corn (Zea mays); [18]
  Plant response rating, Corn: 15
Corn (Zea mays); [19]
  Plant response rating, Corn: 15
Corn (Zea mays); [20]
  Corn plant response rating: 0
[5]; [18]
  Plant response rating, Wheat: 15
[5]; [19]
  Plant response rating, Wheat: 30
[5]; [20]
  Wheat plant response rating: 10
[6]; [18]
  Plant response rating, Oilseed Rape: 10
[6]; [19]
  Plant response rating, Oilseed Rape: 25
[6]; [20]
  Oilseed Rape plant response rating: 0
[7]; [18]
  Plant response rating, Waterhemp: 100
[7]; [19]
  Plant response rating, Waterhemp: 100
[7]; [20]
  Waterhemp plant response rating: 100
[8]; [18]
  Plant response rating, Lambsquarters: 100
[8]; [19]
  Plant response rating, Lambsquarters: 100
[8]; [20]
  Lambsquarters plant response rating: 100
[9]; [18]
  Plant response rating, Ragweed: 98
[9]; [19]
  Plant response rating, Ragweed: 100
[9]; [20]
  Ragweed plant response rating: 98
[10]; [21]
  Blackgrass plant response rating: 5
[10]; [18]
  Plant response rating, Blackgrass: 50
[10]; [19]
  Plant response rating, Blackgrass: 70
[10]; [20]
  Blackgrass plant response rating: 30
[11]; [18]
  Plant response rating, Ryegrass, Italian: 65
[11]; [19]
  Plant response rating, Ryegrass, Italian: 85
[11]; [20]
  Ryegrass, Italian plant response rating: 45
[12]; [18]
  Plant response rating, Nutsedge, Yellow: 50
[12]; [19]
  Plant response rating, Nutsedge, Yellow: 60
[12]; [20]
  Nutsedge, Yellow plant response rating: 15
[13]; [18]
  Plant response rating, Johnsongrass: 10
[13]; [19]
  Plant response rating, Johnsongrass: 10
[13]; [20]
  Johnsongrass plant response rating: 5
Soybean (Glycine max); [18]
  Plant response rating, Soybean: 25
Soybean (Glycine max); [19]
  Plant response rating, Soybean: 25
Soybean (Glycine max); [20]
  Soybean plant response rating: 10
Kochia (Kochia scoparia); [18]
  Plant response rating, Kochia: 60
Kochia (Kochia scoparia); [19]
  Plant response rating, Kochia: 80
Kochia (Kochia scoparia); [20]
  Kochia plant response rating: 20
